Measured values as given in ChEMBL document CHEMBL1201862, “PubChem BioAssay data set” (2004).
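96-well plates; 48 h exposure; 5 concentrations. Endpoints by linear interpolation between flanking doses. Not reached: highest tested concentration assigned. GI50 marks 50% less growth.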 Calls of active or inactive are those of the source. Cut-off read from the data, not from the text of the source: active = GI50 up to about 1.1 µM and inactive = higher.

What was measured:
Assay in all cases: DTP human tumour cell line panel, 48 h
SF-268 = system: SF-268
HCC 2998 = system: HCC 2998
DLD-1 = system: DLD-1
SK-MEL-5 = system: SK-MEL-5
SNB-19 = system: SNB-19
RXF 393 = system: RXF 393
MOLT-4 = system: MOLT-4
IGROV-1 = system: IGROV-1
SK-OV-3 = system: SK-OV-3
ACHN = system: ACHN
UACC-257 = system: UACC-257
OVCAR-5 = system: OVCAR-5
CAKI-1 = system: CAKI-1
Malme-3M = system: Malme-3M
RPMI-8226 = system: RPMI-8226
XF498 = system: XF498
UACC-62 = system: UACC-62
SNB-78 = system: SNB-78
SF-539 = system: SF-539
HCT-116 = system: HCT-116
OVCAR-4 = system: OVCAR-4
M14 = system: M14
K562 = system: K562
RXF 631 = system: RXF 631
DMS-273 = system: DMS-273
OVCAR-3 = system: OVCAR-3
OVCAR-8 = system: OVCAR-8
NCI-H23 = system: NCI-H23
SNB-75 = system: SNB-75
HL-60 = system: HL-60
HCT-15 = system: HCT-15
TK-10 = system: TK-10
SF-295 = system: SF-295
COLO 205 = system: COLO 205
LOX IMVI = system: LOX IMVI
EKVX = system: EKVX
SK-MEL-2 = system: SK-MEL-2
NCI-H460 = system: NCI-H460
UO-31 = system: UO-31
CCRF-CEM = system: CCRF-CEM
A549 = system: A549
HOP-62 = system: HOP-62
M19-MEL = system: M19-MEL
HOP-92 = system: HOP-92
LXFL 529 = system: LXFL 529
A498 = system: A498
KM12 = system: KM12
HT-29 = system: HT-29
786-0 = system: 786-0
HOP-18 = system: HOP-18
SR = system: SR
U-251 = system: U-251
SN12C = system: SN12C
SW-620 = system: SW-620
NCI-H226 = system: NCI-H226
SK-MEL-28 = system: SK-MEL-28
DMS-114 = system: DMS-114
NCI-H522 = system: NCI-H522
KM-20L2 = system: KM-20L2

Measured: GI50

Cn1c(=O)c2c3oc(=O)cc(O)c3c(=O)n3c4ccccc4n(c1=O)c23
27.8 µM: HCT-15
inactive: SF-268 47.6 µM | HCC 2998 42.6 µM | DLD-1 35.8 µM | SK-MEL-5 28 µM | SNB-19 > 100 µM | RXF 393 38.8 µM | MOLT-4 33.3 µM | IGROV-1 44.2 µM | SK-OV-3 > 100 µM | ACHN 38 µM | UACC-257 26.1 µM | OVCAR-5 52.5 µM | CAKI-1 32.3 µM | Malme-3M 33.1 µM | RPMI-8226 24 µM | XF498 23.8 µM | UACC-62 35 µM | SNB-78 37 µM | SF-539 47.6 µM | HCT-116 32.8 µM | OVCAR-4 36.5 µM | M14 43.3 µM | K562 20.3 µM | RXF 631 46.6 µM | DMS-273 31.5 µM | OVCAR-3 24.6 µM | OVCAR-8 40.9 µM | NCI-H23 35.6 µM | SNB-75 32.2 µM | HL-60 21.1 µM | TK-10 > 100 µM | SF-295 > 100 µM | COLO 205 27.9 µM | LOX IMVI 15.8 µM | EKVX 57.3 µM | SK-MEL-2 23.4 µM | NCI-H460 37.2 µM | UO-31 28.8 µM | CCRF-CEM 29.2 µM | A549 45.7 µM | HOP-62 > 100 µM | M19-MEL 38.9 µM | HOP-92 33.2 µM | LXFL 529 34.8 µM | A498 23.9 µM | KM12 35.6 µM | HT-29 39.7 µM | 786-0 33.3 µM | HOP-18 36.5 µM | SR 20.4 µM | U-251 41.4 µM | SN12C 34 µM | SW-620 40.5 µM

CN(C)CCNC(=O)c1cccc2[nH]c(-c3ccccc3)nc12
inactive: SF-268 18.5 µM | HCC 2998 15.3 µM | DLD-1 16.3 µM | SK-MEL-5 15.1 µM | SNB-19 32.5 µM | RXF 393 17.2 µM | MOLT-4 4.91 µM | IGROV-1 21.7 µM | SK-OV-3 17.3 µM | ACHN 15.3 µM | UACC-257 16.9 µM | OVCAR-5 15.7 µM | CAKI-1 24.7 µM | RPMI-8226 32.1 µM | UACC-62 18.5 µM | SNB-78 32.1 µM | SF-539 12.2 µM | HCT-116 9.73 µM | OVCAR-4 28.4 µM | M14 17.3 µM | K562 26.4 µM | RXF 631 24.4 µM | DMS-273 14.5 µM | OVCAR-3 21.6 µM | OVCAR-8 > 10 µM | NCI-H23 17.4 µM | SNB-75 37.8 µM | HL-60 21.7 µM | NCI-H226 16.4 µM | TK-10 18.5 µM | SF-295 25.2 µM | COLO 205 11.6 µM | LOX IMVI 15.6 µM | EKVX 23.9 µM | SK-MEL-2 18.5 µM | NCI-H460 15.4 µM | UO-31 12.8 µM | CCRF-CEM 15.9 µM | A549 16.3 µM | HOP-62 22.3 µM | M19-MEL 19.4 µM | HOP-92 20.3 µM | A498 13.1 µM | KM12 22.4 µM | HT-29 19.8 µM | SK-MEL-28 18.3 µM | 786-0 36.3 µM | HOP-18 11.9 µM | DMS-114 17.3 µM | U-251 25.4 µM | SN12C 16.7 µM | SW-620 13.1 µM
15.8 µM: HCT-15

Cc1nc(C(N)=S)sc1C(=O)CC(=O)C(=O)Nc1ccccc1[N+](=O)[O-]
inactive: SF-268 > 100 µM | HCC 2998 > 100 µM | DLD-1 > 100 µM | SK-MEL-5 > 100 µM | SNB-19 > 100 µM | RXF 393 > 100 µM | MOLT-4 > 100 µM | IGROV-1 > 100 µM | SK-OV-3 > 100 µM | ACHN > 100 µM | UACC-257 > 100 µM | OVCAR-5 > 100 µM | CAKI-1 > 100 µM | Malme-3M > 100 µM | RPMI-8226 > 100 µM | NCI-H522 > 100 µM | UACC-62 > 100 µM | SNB-78 > 100 µM | SF-539 > 100 µM | HCT-116 > 100 µM | OVCAR-4 > 100 µM | M14 > 100 µM | K562 > 100 µM | RXF 631 > 100 µM | DMS-273 > 100 µM | OVCAR-3 > 100 µM | OVCAR-8 > 100 µM | NCI-H23 > 100 µM | SNB-75 > 100 µM | HL-60 > 100 µM | TK-10 > 100 µM | SF-295 > 100 µM | KM-20L2 > 100 µM | LOX IMVI > 100 µM | EKVX > 100 µM | SK-MEL-2 > 100 µM | NCI-H460 > 100 µM | UO-31 > 100 µM | CCRF-CEM > 100 µM | A549 > 100 µM | HOP-62 > 100 µM | M19-MEL > 100 µM | HOP-92 > 100 µM | LXFL 529 > 100 µM | A498 > 100 µM | KM12 > 100 µM | HT-29 > 100 µM | SK-MEL-28 > 100 µM | 786-0 > 100 µM | HOP-18 > 100 µM | SR > 100 µM | DMS-114 > 100 µM | U-251 > 100 µM | SW-620 > 100 µM
> 100 µM: HCT-15

COc1cc2c(cc1OC)/C(=C\c1ccccc1N)C(=O)OC2
inactive: SF-268 20.9 µM | HCC 2998 23.3 µM | DLD-1 15 µM | SK-MEL-5 17.8 µM | SNB-19 16.7 µM | RXF 393 3.79 µM | MOLT-4 2.31 µM | IGROV-1 18.6 µM | SK-OV-3 27.7 µM | ACHN 18.3 µM | UACC-257 15.1 µM | OVCAR-5 20 µM | CAKI-1 12 µM | Malme-3M 13.9 µM | RPMI-8226 1.84 µM | NCI-H522 1.56 µM | UACC-62 16.3 µM | SF-539 15.7 µM | OVCAR-4 14.9 µM | M14 19.3 µM | K562 3.02 µM | RXF 631 9.75 µM | DMS-273 10.7 µM | OVCAR-3 18.7 µM | OVCAR-8 > 10 µM | NCI-H23 16.1 µM | SNB-75 10.3 µM | HL-60 3.3 µM | TK-10 20.6 µM | SF-295 15.1 µM | COLO 205 12 µM | KM-20L2 19.1 µM | LOX IMVI 2.11 µM | EKVX 25 µM | SK-MEL-2 12.1 µM | NCI-H460 14.7 µM | UO-31 15.5 µM | CCRF-CEM 2.05 µM | A549 32.1 µM | HOP-62 23.3 µM | M19-MEL 15.2 µM | HOP-92 12.4 µM | LXFL 529 4.65 µM | KM12 13.9 µM | HT-29 11.8 µM | SK-MEL-28 17 µM | 786-0 3.07 µM | HOP-18 13.8 µM | DMS-114 16.3 µM | U-251 18.5 µM | SN12C 13.2 µM | SW-620 4 µM
7.19 µM: HCT-15

CCOC(=O)C(C(=O)OCC)=C1N[C@H](C(=O)OCC)CS1
inactive: SF-268 > 100 µM | HCC 2998 > 100 µM | DLD-1 > 100 µM | SK-MEL-5 > 100 µM | SNB-19 > 100 µM | RXF 393 > 100 µM | MOLT-4 > 100 µM | IGROV-1 > 100 µM | ACHN > 100 µM | UACC-257 > 100 µM | OVCAR-5 > 100 µM | CAKI-1 > 100 µM | Malme-3M > 100 µM | RPMI-8226 > 100 µM | XF498 > 100 µM | NCI-H522 > 100 µM | UACC-62 > 100 µM | SNB-78 > 100 µM | SF-539 > 100 µM | HCT-116 > 100 µM | OVCAR-4 > 100 µM | M14 > 100 µM | K562 > 100 µM | RXF 631 > 100 µM | OVCAR-3 > 100 µM | OVCAR-8 > 100 µM | NCI-H23 > 100 µM | HL-60 > 100 µM | NCI-H226 80.5 µM | SF-295 > 100 µM | COLO 205 > 100 µM | KM-20L2 > 100 µM | LOX IMVI > 100 µM | EKVX > 100 µM | SK-MEL-2 > 100 µM | NCI-H460 > 100 µM | UO-31 > 100 µM | CCRF-CEM > 100 µM | A549 > 100 µM | HOP-62 > 100 µM | M19-MEL > 100 µM | LXFL 529 > 100 µM | KM12 > 100 µM | HT-29 > 100 µM | SK-MEL-28 > 100 µM | 786-0 > 100 µM | HOP-18 > 100 µM | SR > 100 µM | U-251 > 100 µM | SN12C > 100 µM | SW-620 > 100 µM
> 100 µM: HCT-15
